From ChEMBL document CHEMBL1201862, “PubChem BioAssay data set” (2004)
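Values below derive from 48-hour exposures of cells grown in 96-well plates, with endpoints linearly interpolated between the two concentrations bracketing the appropriate inhibition level. GI50: concentration for 50% inhibition of growth.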 Active and inactive are the calls of the source. No stated cut-off is given here; in the data, active = GI50 up to about 1.1 µM and inactive = higher.

Experiments:
Assay in all cases: NCI-60 cell line screen, 48 h
[1] = system: SN12C
[2] = system: TK-10
[3] = system: UACC-62
[4] = system: SF-539
[5] = system: SK-OV-3
[6] = system: RXF 393
[7] = system: KM12
[8] = system: HOP-62
[9] = system: HOP-92
[10] = system: NCI-H23
[11] = system: SK-MEL-28
[12] = system: SNB-19
[13] = system: HCC 2998
[14] = system: EKVX
[15] = system: HCT-116
[16] = system: NCI/ADR-RES
[17] = system: Hs-578T
[18] = system: MCF7
[19] = system: SK-MEL-5
[20] = system: PC-3

SMILES | GI50 [1] | GI50 [2] | GI50 [3] | GI50 [4] | GI50 [5] | GI50 [6] | GI50 [7] | GI50 [8] | GI50 [9] | GI50 [10] | GI50 [11] | GI50 [12] | GI50 [13] | GI50 [14] | GI50 [15] | GI50 [16] | GI50 [17] | GI50 [18] | GI50 [19] | GI50 [20]
CSc1nnc2n1-c1ccccc1SCC2 | > 100 µM (inactive) | > 100 µM (inactive) | > 100 µM (inactive) | > 100 µM (inactive) | > 100 µM (inactive) | > 100 µM (inactive) | > 100 µM (inactive) | > 100 µM (inactive) | > 100 µM (inactive) | > 100 µM (inactive) | > 100 µM (inactive) | > 100 µM (inactive) | > 100 µM (inactive) | > 100 µM (inactive) | > 100 µM (inactive) | – | – | – | – | –
CCOc1cc2c(cc1O)/C(=N\O)C[C@@H]1[C@@H]2CC[C@]2(C)[C@@H](O)CC[C@@H]12 | < 0.0216 µM (active) | 29.6 µM (inactive) | < 0.0191 µM (active) | 0.00256 µM (active) | 0.0374 µM (active) | – | 0.168 µM (active) | < 0.0201 µM (active) | 0.00782 µM (active) | 0.0455 µM (active) | < 0.0276 µM (active) | < 0.01 µM (active) | 2.72 µM (inactive) | 55.2 µM (inactive) | < 0.0211 µM (active) | < 0.0276 µM (active) | < 0.0221 µM (active) | < 0.0195 µM (active) | 0.01 µM (active) | –
COc1ccc(/N=C2\C(=N/c3ccc(OC)cc3)N(c3ccc(N(C)C)cc3)C(=S)N2c2ccc(OC)cc2)cc1 | > 100 µM (inactive) | > 100 µM (inactive) | > 100 µM (inactive) | 0.184 µM (active) | > 100 µM (inactive) | 0.0378 µM (active) | > 100 µM (inactive) | > 64.6 µM (inactive) | > 100 µM (inactive) | > 100 µM (inactive) | > 100 µM (inactive) | > 100 µM (inactive) | > 100 µM (inactive) | > 100 µM (inactive) | > 100 µM (inactive) | > 100 µM (inactive) | – | > 100 µM (inactive) | > 100 µM (inactive) | > 100 µM (inactive)
NCCCC1NC(=O)/C(=C(O)/C=C/C2CCC[C@@H]2CC2SCCS2)C1=O (some centres not stated) | > 100 µM (inactive) | > 100 µM (inactive) | > 100 µM (inactive) | > 100 µM (inactive) | > 100 µM (inactive) | > 100 µM (inactive) | > 100 µM (inactive) | > 100 µM (inactive) | 38.3 µM (inactive) | > 100 µM (inactive) | > 100 µM (inactive) | > 100 µM (inactive) | > 100 µM (inactive) | > 100 µM (inactive) | > 100 µM (inactive) | – | – | – | > 100 µM (inactive) | –
CC(/C=C/c1ccccc1)=N\NC(N)=S | 42.1 µM (inactive) | 39.4 µM (inactive) | – | 31.7 µM (inactive) | 45.4 µM (inactive) | – | 28.3 µM (inactive) | > 100 µM (inactive) | > 100 µM (inactive) | 74 µM (inactive) | > 100 µM (inactive) | 24 µM (inactive) | 21.6 µM (inactive) | 17.7 µM (inactive) | 35.7 µM (inactive) | 27.9 µM (inactive) | – | 33 µM (inactive) | 38.5 µM (inactive) | 90.8 µM (inactive)
ON(CCc1ccncc1)Cc1ccccc1 | > 100 µM (inactive) | – | > 100 µM (inactive) | > 100 µM (inactive) | > 100 µM (inactive) | > 100 µM (inactive) | > 100 µM (inactive) | > 100 µM (inactive) | > 100 µM (inactive) | > 100 µM (inactive) | > 100 µM (inactive) | > 100 µM (inactive) | – | > 100 µM (inactive) | > 100 µM (inactive) | > 100 µM (inactive) | > 100 µM (inactive) | > 100 µM (inactive) | > 100 µM (inactive) | –
O=C(O)c1[nH]c(C(=O)O)c(CC(F)(F)C(F)(F)C(F)(F)F)c1CC(F)(F)C(F)(F)C(F)(F)F | > 100 µM (inactive) | > 100 µM (inactive) | > 100 µM (inactive) | > 100 µM (inactive) | > 100 µM (inactive) | > 100 µM (inactive) | > 100 µM (inactive) | > 100 µM (inactive) | 39.9 µM (inactive) | > 100 µM (inactive) | > 100 µM (inactive) | > 100 µM (inactive) | > 100 µM (inactive) | > 100 µM (inactive) | > 100 µM (inactive) | – | – | – | > 100 µM (inactive) | –
Cc1nc(-c2nc(C)c(C(=O)NNC(=O)C[n+]3ccccc3)s2)sc1C(=O)NNC(=O)C[n+]1ccccc1 | 67.5 µM (inactive) | > 100 µM (inactive) | > 100 µM (inactive) | 37.8 µM (inactive) | 87.5 µM (inactive) | 39.5 µM (inactive) | > 100 µM (inactive) | 33.1 µM (inactive) | 27.5 µM (inactive) | 45.7 µM (inactive) | > 100 µM (inactive) | 25.4 µM (inactive) | > 100 µM (inactive) | 97.3 µM (inactive) | 47 µM (inactive) | – | – | – | 45.7 µM (inactive) | –
O=C1/C(=C\c2ccccc2)C2/C(=C\c3ccccc3)C(=O)/C(=C\c3ccccc3)C2/C1=C\c1ccccc1 (configuration not stated) | 2.01 µM (inactive) | 3.87 µM (inactive) | 1.9 µM (inactive) | 2.35 µM (inactive) | 19.7 µM (inactive) | 1.53 µM (inactive) | 1.42 µM (inactive) | 2.4 µM (inactive) | 1.69 µM (inactive) | 1.62 µM (inactive) | 2.18 µM (inactive) | – | 1.29 µM (inactive) | 3.89 µM (inactive) | – | – | – | – | 1.9 µM (inactive) | –
C=C(C)C1CC[C@@](C)(O)[C@H](C#N)C1 (some centres not stated) | > 100 µM (inactive) | > 100 µM (inactive) | > 100 µM (inactive) | > 100 µM (inactive) | > 100 µM (inactive) | > 100 µM (inactive) | > 100 µM (inactive) | > 100 µM (inactive) | – | > 100 µM (inactive) | > 100 µM (inactive) | > 100 µM (inactive) | > 100 µM (inactive) | > 100 µM (inactive) | > 100 µM (inactive) | – | > 100 µM (inactive) | > 100 µM (inactive) | > 100 µM (inactive) | 71 µM (inactive)
COC(=O)/C(=C/c1ccc(OC)cc1)NC(=O)c1ccccc1 | > 100 µM (inactive) | > 100 µM (inactive) | > 100 µM (inactive) | > 100 µM (inactive) | > 100 µM (inactive) | > 100 µM (inactive) | > 100 µM (inactive) | – | > 100 µM (inactive) | > 100 µM (inactive) | > 100 µM (inactive) | > 100 µM (inactive) | > 100 µM (inactive) | > 100 µM (inactive) | > 100 µM (inactive) | – | – | – | > 100 µM (inactive) | –
CNC(=O)NCCCC(NC(C)=O)C(=O)NCc1ccccc1 (configuration not stated) | > 100 µM (inactive) | > 100 µM (inactive) | > 100 µM (inactive) | > 100 µM (inactive) | > 100 µM (inactive) | > 100 µM (inactive) | > 100 µM (inactive) | > 100 µM (inactive) | 92.9 µM (inactive) | > 100 µM (inactive) | > 100 µM (inactive) | > 100 µM (inactive) | > 100 µM (inactive) | > 100 µM (inactive) | > 100 µM (inactive) | – | – | – | > 100 µM (inactive) | –
COc1nc2sc3c(c2c(=O)n1CCCSSCCCn1c(OC)nc2sc4c(c2c1=O)CCCC4)CCCC3 | > 100 µM (inactive) | > 100 µM (inactive) | > 100 µM (inactive) | > 100 µM (inactive) | > 100 µM (inactive) | > 100 µM (inactive) | > 100 µM (inactive) | > 100 µM (inactive) | > 100 µM (inactive) | > 100 µM (inactive) | > 100 µM (inactive) | > 100 µM (inactive) | > 100 µM (inactive) | > 100 µM (inactive) | > 100 µM (inactive) | > 100 µM (inactive) | – | > 100 µM (inactive) | > 100 µM (inactive) | > 100 µM (inactive)
Cn1c(C(O)C2(c3cccnc3)SCCCS2)cc2ccccc21 (configuration not stated) | > 100 µM (inactive) | > 100 µM (inactive) | 88.3 µM (inactive) | – | > 100 µM (inactive) | – | 71.4 µM (inactive) | > 100 µM (inactive) | > 100 µM (inactive) | 47.8 µM (inactive) | > 100 µM (inactive) | > 100 µM (inactive) | > 100 µM (inactive) | 72.3 µM (inactive) | > 100 µM (inactive) | > 100 µM (inactive) | – | 59.2 µM (inactive) | 37.6 µM (inactive) | 66.1 µM (inactive)
Nc1ncnc2c1ncn2C1CC(OCc2ccccc2[N+](=O)[O-])C(CO)O1 (configuration not stated) | 24.3 µM (inactive) | 30.8 µM (inactive) | – | 44.5 µM (inactive) | 21.7 µM (inactive) | 5.38 µM (inactive) | 20 µM (inactive) | 24.3 µM (inactive) | 21.4 µM (inactive) | 23 µM (inactive) | 23.8 µM (inactive) | 46.1 µM (inactive) | 28.8 µM (inactive) | 33 µM (inactive) | 17.4 µM (inactive) | – | – | – | – | –
COc1ccc(/C=c2/sc3n(c2=O)NC(c2ccc(Cl)cc2)NN=3)cc1 (configuration not stated) | > 100 µM (inactive) | > 100 µM (inactive) | > 100 µM (inactive) | > 100 µM (inactive) | > 100 µM (inactive) | > 100 µM (inactive) | > 100 µM (inactive) | – | 46.2 µM (inactive) | > 100 µM (inactive) | > 100 µM (inactive) | > 100 µM (inactive) | > 100 µM (inactive) | > 100 µM (inactive) | > 100 µM (inactive) | – | – | – | > 100 µM (inactive) | –
